In ChEMBL document CHEMBL4507297, “Data for DCP probe PF-04457845” (2021):

How the values were obtained:
[1] = biological target: Sigma intracellular receptor 2 (Homo sapiens, UniProt Q5BJF2); assay: GPCRScan assay: inhibition of Sigma 2; parameters: radioligand conc. used [nm] 5.0, parental cells HEKT
[2] = tested on: Tyrosine-protein kinase ABL1 (Homo sapiens), P00519 [H396P]; details: Compound concentration 1000.0 nM
[3] = biological target: Activin receptor type-2B (Homo sapiens) (UniProt Q13705); details: Compound concentration 1000.0 nM
[4] = tested on: ALK tyrosine kinase receptor (Homo sapiens), Q9UM73 [L1196M]; details: Compound concentration 1000.0 nM
[5] = biological target: 5'-AMP-activated protein kinase catalytic subunit alpha-2 (Homo sapiens) (UniProt P54646); details: Compound concentration 1000.0 nM
[6] = biological target: Cyclin-dependent kinase 19 (Homo sapiens) (UniProt Q9BWU1); details: Compound concentration 1000.0 nM
[7] = biological target: Cyclin-dependent kinase 8 (Homo sapiens) (UniProt P49336); details: Compound concentration 1000.0 nM
[8] = biological target: Cyclin-dependent kinase-like 1 (Homo sapiens) (UniProt Q00532); details: Compound concentration 1000.0 nM
[9] = biological target: Cyclin-dependent kinase-like 3 (Homo sapiens) (UniProt Q8IVW4); details: Compound concentration 1000.0 nM
[10] = biological target: Dual specificity protein kinase CLK1 (Homo sapiens) (UniProt P49759); details: Compound concentration 1000.0 nM
[11] = biological target: Dual specificity protein kinase CLK2 (Homo sapiens) (UniProt P49760); details: Compound concentration 1000.0 nM
[12] = biological target: Discoidin domain-containing receptor 2 (Homo sapiens) (UniProt Q16832); details: Compound concentration 1000.0 nM
[13] = biological target: Myotonin-protein kinase (Homo sapiens) (UniProt Q09013); details: Compound concentration 1000.0 nM
[14] = biological target: Dual specificity tyrosine-phosphorylation-regulated kinase 1A (Homo sapiens) (UniProt Q13627); details: Compound concentration 1000.0 nM
[15] = tested on: Epidermal growth factor receptor (Homo sapiens), P00533 [UNDEFINED MUTATION]; details: Compound concentration 1000.0 nM
[16] = biological target: Ephrin type-A receptor 8 (Homo sapiens) (UniProt P29322); details: Compound concentration 1000.0 nM
[17] = biological target: Ephrin type-B receptor 6 (Homo sapiens) (UniProt O15197); details: Compound concentration 1000.0 nM
[18] = biological target: Serine/threonine-protein kinase/endoribonuclease IRE1 (Homo sapiens) (UniProt O75460); details: Compound concentration 1000.0 nM
[19] = biological target: Homeodomain-interacting protein kinase 1 (Homo sapiens) (UniProt Q86Z02); details: Compound concentration 1000.0 nM
[20] = biological target: Mitogen-activated protein kinase kinase kinase kinase 1 (Homo sapiens) (UniProt Q92918); details: Compound concentration 1000.0 nM
[21] = biological target: LIM domain kinase 2 (Homo sapiens) (UniProt P53671); details: Compound concentration 1000.0 nM
[22] = biological target: Mitogen-activated protein kinase kinase kinase 2 (Homo sapiens) (UniProt Q9Y2U5); details: Compound concentration 1000.0 nM
[23] = biological target: Mitogen-activated protein kinase kinase kinase kinase 5 (Homo sapiens) (UniProt Q9Y4K4); details: Compound concentration 1000.0 nM
[24] = biological target: Misshapen-like kinase 1 (Homo sapiens) (UniProt Q8N4C8); details: Compound concentration 1000.0 nM
[25] = biological target: Serine/threonine-protein kinase MRCK beta (Homo sapiens) (UniProt Q9Y5S2); details: Compound concentration 1000.0 nM
[26] = biological target: Serine/threonine-protein kinase 24 (Homo sapiens) (UniProt Q9Y6E0); details: Compound concentration 1000.0 nM
[27] = biological target: Mitogen-activated protein kinase 11 (Homo sapiens) (UniProt Q15759); details: Compound concentration 1000.0 nM
[28] = biological target: Serine/threonine-protein kinase PAK 5 (Homo sapiens) (UniProt Q9P286); details: Compound concentration 1000.0 nM
[29] = biological target: 3-phosphoinositide-dependent protein kinase 1 (Homo sapiens) (UniProt O15530); details: Compound concentration 1000.0 nM
[30] = tested on: Phosphatidylinositol 4,5-bisphosphate 3-kinase catalytic subunit alpha isoform (Homo sapiens), P42336 [E545A]; details: Compound concentration 1000.0 nM
[31] = biological target: Phosphatidylinositol 4-kinase beta (Homo sapiens) (UniProt Q9UBF8); details: Compound concentration 1000.0 nM
[32] = biological target: Serine/threonine-protein kinase PknB (Mycobacterium tuberculosis) (UniProt P9WI81); details: Compound concentration 1000.0 nM
[33] = biological target: Receptor-interacting serine/threonine-protein kinase 4 (Homo sapiens) (UniProt P57078); details: Compound concentration 1000.0 nM
[34] = biological target: Ribosomal protein S6 kinase alpha-4 (Homo sapiens) (UniProt O75676); details: Compound concentration 1000.0 nM
[35] = biological target: Ribosomal protein S6 kinase alpha-3 (Homo sapiens) (UniProt P51812); details: Compound concentration 1000.0 nM
[36] = biological target: Serine/threonine-protein kinase SIK1 (Homo sapiens) (UniProt P57059); details: Compound concentration 1000.0 nM
[37] = biological target: Dual specificity testis-specific protein kinase 1 (Homo sapiens) (UniProt Q15569); details: Compound concentration 1000.0 nM
[38] = biological target: Serine/threonine-protein kinase WNK2 (Homo sapiens) (UniProt Q9Y3S1); details: Compound concentration 1000.0 nM
[39] = biological target: Serine/threonine-protein kinase WNK4 (Homo sapiens) (UniProt Q96J92); details: Compound concentration 1000.0 nM
[40] = biological target: 5-hydroxytryptamine receptor 5A (Homo sapiens) (UniProt P47898); details: Compound concentration 10.0 uM
[41] = biological target: Sodium-dependent serotonin transporter (Homo sapiens) (UniProt P31645); details: Compound concentration 10.0 uM
[42] = biological target: Histamine H1 receptor (Homo sapiens) (UniProt P35367); details: Compound concentration 10.0 uM
[43] = biological target: Alpha-1B adrenergic receptor (Homo sapiens) (UniProt P35368); details: Compound concentration 10.0 uM
[44] = biological target: GABA-A receptor; anion channel (Rattus norvegicus) (UniProt O09028+P15431+P18506+P18508+P19969+P20236+P23574+P23576+P28471+P28473+P30191+P62813+P63079+P63138+Q91ZM7+Q9ES14); details: Compound concentration 10.0 uM

Epidermal growth factor receptor (Homo sapiens), P00533 [UNDEFINED MUTATION], sequence (P00533 whole entry, looked up, change not shown): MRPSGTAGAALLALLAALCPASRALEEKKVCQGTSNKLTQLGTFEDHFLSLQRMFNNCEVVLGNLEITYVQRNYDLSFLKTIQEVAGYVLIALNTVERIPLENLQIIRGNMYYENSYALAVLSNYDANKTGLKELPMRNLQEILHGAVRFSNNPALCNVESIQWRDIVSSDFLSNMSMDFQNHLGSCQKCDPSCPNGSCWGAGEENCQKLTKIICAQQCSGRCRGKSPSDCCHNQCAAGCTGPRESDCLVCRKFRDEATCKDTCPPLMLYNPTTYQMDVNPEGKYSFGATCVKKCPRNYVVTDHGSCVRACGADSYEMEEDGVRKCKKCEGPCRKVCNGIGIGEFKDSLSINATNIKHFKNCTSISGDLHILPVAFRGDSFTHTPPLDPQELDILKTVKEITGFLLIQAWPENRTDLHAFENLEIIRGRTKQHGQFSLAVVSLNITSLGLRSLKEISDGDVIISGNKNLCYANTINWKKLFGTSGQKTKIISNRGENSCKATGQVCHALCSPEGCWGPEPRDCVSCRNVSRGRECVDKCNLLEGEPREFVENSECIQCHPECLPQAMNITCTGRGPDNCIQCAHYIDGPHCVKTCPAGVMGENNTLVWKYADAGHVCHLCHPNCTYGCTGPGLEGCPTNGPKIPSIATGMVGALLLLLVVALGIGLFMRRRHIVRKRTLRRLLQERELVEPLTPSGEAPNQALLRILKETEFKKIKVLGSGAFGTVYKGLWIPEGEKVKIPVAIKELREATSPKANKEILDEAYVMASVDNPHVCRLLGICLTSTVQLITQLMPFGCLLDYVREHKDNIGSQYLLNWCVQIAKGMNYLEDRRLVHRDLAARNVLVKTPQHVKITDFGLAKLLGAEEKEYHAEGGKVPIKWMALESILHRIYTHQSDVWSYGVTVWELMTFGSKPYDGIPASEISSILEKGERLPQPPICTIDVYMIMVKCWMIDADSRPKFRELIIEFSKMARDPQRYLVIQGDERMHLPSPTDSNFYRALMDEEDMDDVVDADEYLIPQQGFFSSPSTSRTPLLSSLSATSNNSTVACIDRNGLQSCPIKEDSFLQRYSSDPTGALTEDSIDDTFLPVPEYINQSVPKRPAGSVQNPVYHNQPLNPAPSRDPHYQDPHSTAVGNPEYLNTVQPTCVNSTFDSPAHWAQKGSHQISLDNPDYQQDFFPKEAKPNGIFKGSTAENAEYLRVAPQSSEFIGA
Serine/threonine-protein kinase 24 (Homo sapiens), sequence (Q9Y6E0 whole entry, looked up): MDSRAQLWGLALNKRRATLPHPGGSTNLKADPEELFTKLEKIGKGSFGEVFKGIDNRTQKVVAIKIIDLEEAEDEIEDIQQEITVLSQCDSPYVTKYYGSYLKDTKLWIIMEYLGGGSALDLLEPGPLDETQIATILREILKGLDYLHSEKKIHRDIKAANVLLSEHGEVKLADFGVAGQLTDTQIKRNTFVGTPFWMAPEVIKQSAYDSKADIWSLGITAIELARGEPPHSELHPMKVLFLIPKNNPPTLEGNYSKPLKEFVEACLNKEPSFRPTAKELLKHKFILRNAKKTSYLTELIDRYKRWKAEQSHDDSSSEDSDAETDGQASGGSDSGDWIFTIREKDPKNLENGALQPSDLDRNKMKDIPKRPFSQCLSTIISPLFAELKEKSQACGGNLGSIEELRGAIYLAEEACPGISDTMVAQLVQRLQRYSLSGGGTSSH
Serine/threonine-protein kinase WNK2 (Homo sapiens), sequence (Q9Y3S1 whole entry): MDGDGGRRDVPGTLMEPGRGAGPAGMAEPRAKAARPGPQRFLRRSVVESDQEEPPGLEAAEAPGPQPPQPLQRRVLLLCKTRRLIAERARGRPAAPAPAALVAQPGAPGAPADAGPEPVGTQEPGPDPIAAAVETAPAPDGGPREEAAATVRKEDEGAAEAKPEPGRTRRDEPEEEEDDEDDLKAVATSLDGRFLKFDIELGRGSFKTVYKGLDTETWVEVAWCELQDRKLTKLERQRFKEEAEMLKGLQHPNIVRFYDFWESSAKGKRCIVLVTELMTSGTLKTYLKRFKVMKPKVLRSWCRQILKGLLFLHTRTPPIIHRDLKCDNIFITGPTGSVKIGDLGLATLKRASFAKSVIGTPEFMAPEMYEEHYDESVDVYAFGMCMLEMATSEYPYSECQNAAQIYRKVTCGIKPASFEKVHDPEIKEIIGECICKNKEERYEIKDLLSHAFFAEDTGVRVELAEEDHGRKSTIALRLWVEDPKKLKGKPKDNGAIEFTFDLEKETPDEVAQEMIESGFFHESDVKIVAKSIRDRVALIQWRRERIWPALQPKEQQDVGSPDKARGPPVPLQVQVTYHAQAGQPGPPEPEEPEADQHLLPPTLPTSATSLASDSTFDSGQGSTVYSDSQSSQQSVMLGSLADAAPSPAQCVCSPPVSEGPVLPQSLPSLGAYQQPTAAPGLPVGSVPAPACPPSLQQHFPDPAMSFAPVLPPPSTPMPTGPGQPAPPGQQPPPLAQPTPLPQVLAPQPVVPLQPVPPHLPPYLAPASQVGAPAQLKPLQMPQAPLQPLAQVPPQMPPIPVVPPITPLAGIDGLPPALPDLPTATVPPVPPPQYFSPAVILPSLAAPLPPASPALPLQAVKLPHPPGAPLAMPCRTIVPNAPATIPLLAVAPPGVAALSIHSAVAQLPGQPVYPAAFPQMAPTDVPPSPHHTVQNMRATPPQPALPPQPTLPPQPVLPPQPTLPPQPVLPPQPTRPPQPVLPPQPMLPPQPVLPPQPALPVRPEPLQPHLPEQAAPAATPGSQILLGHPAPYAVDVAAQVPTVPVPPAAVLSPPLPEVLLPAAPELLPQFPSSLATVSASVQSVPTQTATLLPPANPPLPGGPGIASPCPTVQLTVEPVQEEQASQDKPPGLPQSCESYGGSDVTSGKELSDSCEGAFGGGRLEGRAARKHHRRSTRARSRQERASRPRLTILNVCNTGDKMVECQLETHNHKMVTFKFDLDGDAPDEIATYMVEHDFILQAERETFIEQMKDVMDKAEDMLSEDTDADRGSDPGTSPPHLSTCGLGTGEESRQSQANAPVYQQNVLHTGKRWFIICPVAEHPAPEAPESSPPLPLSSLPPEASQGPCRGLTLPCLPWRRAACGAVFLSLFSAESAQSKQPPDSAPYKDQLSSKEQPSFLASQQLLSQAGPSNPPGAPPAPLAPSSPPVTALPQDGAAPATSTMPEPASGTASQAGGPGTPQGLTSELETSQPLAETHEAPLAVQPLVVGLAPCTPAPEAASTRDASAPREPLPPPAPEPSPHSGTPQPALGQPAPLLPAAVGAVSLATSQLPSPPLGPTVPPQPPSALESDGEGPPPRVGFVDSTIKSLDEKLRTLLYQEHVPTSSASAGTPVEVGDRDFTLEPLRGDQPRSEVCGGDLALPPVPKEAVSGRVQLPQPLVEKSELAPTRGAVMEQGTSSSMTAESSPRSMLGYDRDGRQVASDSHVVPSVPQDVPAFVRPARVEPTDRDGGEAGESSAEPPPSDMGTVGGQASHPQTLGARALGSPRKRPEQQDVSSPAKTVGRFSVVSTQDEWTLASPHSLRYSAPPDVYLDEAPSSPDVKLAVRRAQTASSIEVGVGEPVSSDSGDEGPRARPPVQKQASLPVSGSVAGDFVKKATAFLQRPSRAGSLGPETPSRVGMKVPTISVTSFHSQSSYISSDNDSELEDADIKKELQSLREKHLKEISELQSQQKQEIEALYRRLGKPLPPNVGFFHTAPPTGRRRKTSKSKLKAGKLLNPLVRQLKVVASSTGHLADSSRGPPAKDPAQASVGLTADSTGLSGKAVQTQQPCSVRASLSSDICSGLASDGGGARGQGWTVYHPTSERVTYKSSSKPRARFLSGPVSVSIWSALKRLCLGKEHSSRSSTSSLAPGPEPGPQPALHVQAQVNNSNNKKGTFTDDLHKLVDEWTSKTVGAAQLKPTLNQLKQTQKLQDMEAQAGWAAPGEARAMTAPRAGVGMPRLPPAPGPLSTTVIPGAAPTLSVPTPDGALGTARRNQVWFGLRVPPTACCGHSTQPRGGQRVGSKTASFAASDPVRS
Ephrin type-A receptor 8 (Homo sapiens), sequence (P29322 whole entry): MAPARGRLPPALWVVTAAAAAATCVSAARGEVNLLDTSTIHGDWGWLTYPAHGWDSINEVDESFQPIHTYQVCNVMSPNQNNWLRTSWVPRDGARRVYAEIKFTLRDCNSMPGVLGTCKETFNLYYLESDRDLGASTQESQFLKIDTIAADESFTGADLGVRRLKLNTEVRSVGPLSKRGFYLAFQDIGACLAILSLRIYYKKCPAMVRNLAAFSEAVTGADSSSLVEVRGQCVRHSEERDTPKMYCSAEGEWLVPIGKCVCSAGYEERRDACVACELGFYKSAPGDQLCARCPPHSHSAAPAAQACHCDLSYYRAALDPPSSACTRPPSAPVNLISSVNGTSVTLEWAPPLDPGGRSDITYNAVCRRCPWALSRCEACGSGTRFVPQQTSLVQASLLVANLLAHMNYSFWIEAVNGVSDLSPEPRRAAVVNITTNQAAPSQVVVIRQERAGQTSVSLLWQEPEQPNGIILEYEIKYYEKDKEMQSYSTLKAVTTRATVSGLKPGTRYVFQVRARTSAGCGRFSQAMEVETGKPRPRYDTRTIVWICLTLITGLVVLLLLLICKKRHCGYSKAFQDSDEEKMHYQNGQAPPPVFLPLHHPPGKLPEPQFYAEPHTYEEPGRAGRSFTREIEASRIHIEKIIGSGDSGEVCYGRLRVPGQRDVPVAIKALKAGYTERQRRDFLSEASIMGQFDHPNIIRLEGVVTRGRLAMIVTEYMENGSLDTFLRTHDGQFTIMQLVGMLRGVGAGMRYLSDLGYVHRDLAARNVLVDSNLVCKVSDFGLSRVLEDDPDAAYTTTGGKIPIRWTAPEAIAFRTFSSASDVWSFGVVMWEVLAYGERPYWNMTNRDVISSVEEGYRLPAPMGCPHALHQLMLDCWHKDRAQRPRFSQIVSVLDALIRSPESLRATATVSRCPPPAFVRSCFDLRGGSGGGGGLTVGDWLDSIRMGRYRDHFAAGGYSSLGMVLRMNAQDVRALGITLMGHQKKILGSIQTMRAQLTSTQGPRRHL
Sigma intracellular receptor 2, sequence (Q5BJF2 whole entry): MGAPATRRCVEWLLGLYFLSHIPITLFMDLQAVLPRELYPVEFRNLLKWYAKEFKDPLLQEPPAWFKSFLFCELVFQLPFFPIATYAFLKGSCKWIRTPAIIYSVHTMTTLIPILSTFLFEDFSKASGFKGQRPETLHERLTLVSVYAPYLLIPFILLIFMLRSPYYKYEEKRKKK

O=C(Nc1cccnn1)N1CCC(=Cc2cccc(Oc3ccc(C(F)(F)F)cn3)c2)CC1
Ki [1]: 0.437 µM
residual activity [2]: 100%
residual activity [3]: 98%
residual activity [4]: 100%
residual activity [5]: 100%
residual activity [6]: 100%
residual activity [7]: 100%
residual activity [8]: 86%
residual activity [9]: 81%
residual activity [10]: 95%
residual activity [11]: 66%
residual activity [12]: 100%
residual activity [13]: 100%
residual activity [14]: 100%
residual activity [15]: 69%
residual activity [16]: 100%
residual activity [17]: 100%
residual activity [18]: 92%
residual activity [19]: 100%
residual activity [20]: 80%
residual activity [21]: 88%
residual activity [22]: 100%
residual activity [23]: 100%
residual activity [24]: 100%
residual activity [25]: 100%
residual activity [26]: 100%
residual activity [27]: 83%
residual activity [28]: 100%
residual activity [29]: 85%
residual activity [30]: 100%
residual activity [31]: 100%
residual activity [32]: 95%
residual activity [33]: 100%
residual activity [34]: 100%
residual activity [35]: 100%
residual activity [36]: 100%
residual activity [37]: 91%
residual activity [38]: 92%
residual activity [39]: 96%
inhibition [40]: 28.4%
inhibition [41]: 20.2%
inhibition [42]: 27.2%
inhibition [43]: 0.4%
inhibition [44]: 7.35%

O=C(Nc1cccnn1)N1CC(C/C=C/c2cncc(Oc3ccc(C(F)(F)F)cn3)n2)C1
Ki [1]: 8.41 µM
residual activity [2]: 76%
residual activity [3]: 98%
residual activity [4]: 82%
residual activity [5]: 96%
residual activity [6]: 84%
residual activity [7]: 100%
residual activity [8]: 100%
residual activity [9]: 95%
residual activity [10]: 100%
residual activity [11]: 100%
residual activity [12]: 80%
residual activity [13]: 100%
residual activity [14]: 75%
residual activity [15]: 100%
residual activity [16]: 100%
residual activity [17]: 87%
residual activity [18]: 67%
residual activity [19]: 88%
residual activity [20]: 98%
residual activity [21]: 95%
residual activity [22]: 79%
residual activity [23]: 94%
residual activity [24]: 100%
residual activity [25]: 100%
residual activity [26]: 98%
residual activity [27]: 100%
residual activity [28]: 95%
residual activity [29]: 97%
residual activity [30]: 75%
residual activity [31]: 91%
residual activity [32]: 87%
residual activity [33]: 74%
residual activity [34]: 92%
residual activity [35]: 89%
residual activity [36]: 100%
residual activity [37]: 100%
residual activity [38]: 0%
residual activity [39]: 0%
inhibition [40]: 7.85%
inhibition [41]: 32.7%
inhibition [42]: 30.9%
inhibition [43]: 0.27%
inhibition [44]: 17.3%
